Test results published in patent US10383906B2, “Method for treating skin diseases with mangosteen rind extract” (XANTHO BIOTECHNOLOGY CO., LTD, priority 2015, dated 2019).

System: TNCB-induced atopic dermatitis in mice ears
Experiment: TNCB-induced atopic dermatitis in mice: ear thickness, ear weight, ear appearance, histopathology
Format: in vivo, BALB/c mice
Conditions: for Pathological slice average inflammation degree (average severity of the pathological changes): mice ears, HE staining, after three weeks of daily test substance, scale Grade 1 minimal to Grade 5 extremely severe
Experimental: The animals used in the experiments were 8-week-old BALB/c mice (purchased from LESCO Biotech), the body weight were 25 to 28 g and were quarantined by veterinarians for one week before entering the breeding room. The animals were divided into 9 groups, 3 in each group, a total of 27 mices. The temperature of the breeding room was set at 21±2° C., the humidity was set at 30 to 70%, and the environment was set for 12/12 hour light-dark cycle with unlimited supply of food and water.
In the animal experiments, 2-chloro-1,3,5-trinitrobezene (TNCB) was used to induce atopic dermatitis in mice and acetone was used as the solvent to prepare 1% of TNCB which was applied to mice ears (once every 2 days, the volume was 4 ml/kg) one week prior to testings. […] In addition, for those groups that were simultaneously provided with test ointments and test oral substances, the oral dose was 60 mg/kg and the volume was 10 ml/kg. When TNCB and the test substance were given on the same day, in order to reduce the effect of interactions between each other, TNCB and test substance were given at least 1 hour apart. The mangosteen paste of 0.5%, 1%, 2%, 3%, 5% respectively contained 20 mg/kg, 40 mg/kg, 80 mg/kg, 120 mg/kg and 200 mg/kg of extract of mangosteen rind.
Changes in body weight and ear thickness of the mice were monitored twice weekly. Blood of all experimental animals were collected before TNCB induction, after the induction and before the test substance was given and when being sacrificed. After the blood was centrifuged at 3000 rpm for 30 minutes at 4° C., serum samples were obtained and stored.
All animals were sacrificed at the end of the third week after the test substance was given. Mice ears were removed, photographed and stored in 10% of formalin solution for histopathological observation. HE staining was used for the pathological observation (conducted by the National Laboratory Animal Center).
Data are expressed as means±standard deviation […] and Student's t-test was used to compare the differences among treatment groups. Asterisks indicate significant differences, *p<0.05; **p<0.01; ***p<0.001.

[1] = inner rind versus outer rind extract experiment (4%)

SMILES: CC(=O)OCC(=O)[C@@]1(O)CC[C@H]2[C@@H]3CCC4=CC(=O)CC[C@]4(C)[C@H]3[C@@H](O)C[C@@]21C [1% Hydrocortisone Acetate, hydrocortisone acetate]
- Inhibition rate, ear thickness (degree of swelling of mice ears, compared with the model group, mangosteen paste dose series): 52.7%
- Ear appearance after being sacrificed (ears removed at end of experiment (FIG. 4)): intact ear contour
- Inhibition rate, ear weight (ears weighed after sacrifice, compared with the model group, mangosteen paste dose series): 82.4%
- Inhibition rate (%), ear thickness [1]: 50.75%
- Inhibition rate (%), ear weight [1]: 68.91%
- Pathological slice average inflammation degree (average severity of the pathological changes): 3 ± 0 Grade
- Pathological slice average inflammation degree (average severity of the pathological changes) (listed as 1% hydrocortisone acetate): 3 Grade
